Entries after “also recorded” stand apart in the source; their conditions may differ. Marks after values point to notes of the source that are not given here.
Columns and labels:
[1] = system: plasma protein; experiment: DM-4103 plasma protein binding, micropartition device (Centrifree YM-30) with HPLC-MS/MS; type: in vitro ADME
Protocol: The effect of six other highly plasma protein bound compounds on DM-4103 binding was also evaluated. […] No potential for interaction at either transporter would have been predicted if a free fraction of 0.1% had been used, consistent with the clinical findings.

[2] = Earlier clinical data for tolvaptan and DM-4103 (PK, tolerability; data on file); type: in vivo, human
[3] = biological target: T1, human (OATP)1B1 (Homo sapiens, UniProt Q9Y6L6)
T1 sequence (Q9Y6L6 1-691): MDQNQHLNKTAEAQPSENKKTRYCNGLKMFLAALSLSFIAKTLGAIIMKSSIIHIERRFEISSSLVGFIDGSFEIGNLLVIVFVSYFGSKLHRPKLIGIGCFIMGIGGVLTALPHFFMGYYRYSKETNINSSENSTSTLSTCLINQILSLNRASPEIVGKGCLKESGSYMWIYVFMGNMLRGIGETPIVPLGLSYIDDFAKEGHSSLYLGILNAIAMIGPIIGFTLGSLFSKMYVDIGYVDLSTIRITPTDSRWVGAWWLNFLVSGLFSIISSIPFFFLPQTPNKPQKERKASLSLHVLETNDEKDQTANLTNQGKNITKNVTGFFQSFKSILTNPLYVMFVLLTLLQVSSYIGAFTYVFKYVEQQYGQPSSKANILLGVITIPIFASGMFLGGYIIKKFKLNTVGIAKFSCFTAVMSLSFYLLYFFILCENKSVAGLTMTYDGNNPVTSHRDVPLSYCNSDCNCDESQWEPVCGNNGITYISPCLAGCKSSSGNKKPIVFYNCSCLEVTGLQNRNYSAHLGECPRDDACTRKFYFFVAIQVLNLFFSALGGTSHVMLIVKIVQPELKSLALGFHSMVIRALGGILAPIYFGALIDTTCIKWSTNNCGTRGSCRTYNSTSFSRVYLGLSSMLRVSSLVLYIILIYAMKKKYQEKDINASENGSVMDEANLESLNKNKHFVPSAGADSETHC
Protocol: (OATP)1B1: Estradiol 17β-D-glucuronide transport was evaluated in HEK293 cells stably expressing human (OATP)1B1 (kit with ready to use 24 well plates were obtained from GenoMembrane). […] DM-4103 concentrations of 0.064, 0.32, 1.6, 8.0, 40, and 200 μM were tested.

[4] = biological target: T2, (OAT)3 (Homo sapiens, UniProt Q8TCC7); experiment: Estrone 3-sulfate transport inhibition in HEK293 cells stably expressing human (OAT)3; type: cell-based; design: host or cells: HEK293
T2 sequence (Q8TCC7 1-542): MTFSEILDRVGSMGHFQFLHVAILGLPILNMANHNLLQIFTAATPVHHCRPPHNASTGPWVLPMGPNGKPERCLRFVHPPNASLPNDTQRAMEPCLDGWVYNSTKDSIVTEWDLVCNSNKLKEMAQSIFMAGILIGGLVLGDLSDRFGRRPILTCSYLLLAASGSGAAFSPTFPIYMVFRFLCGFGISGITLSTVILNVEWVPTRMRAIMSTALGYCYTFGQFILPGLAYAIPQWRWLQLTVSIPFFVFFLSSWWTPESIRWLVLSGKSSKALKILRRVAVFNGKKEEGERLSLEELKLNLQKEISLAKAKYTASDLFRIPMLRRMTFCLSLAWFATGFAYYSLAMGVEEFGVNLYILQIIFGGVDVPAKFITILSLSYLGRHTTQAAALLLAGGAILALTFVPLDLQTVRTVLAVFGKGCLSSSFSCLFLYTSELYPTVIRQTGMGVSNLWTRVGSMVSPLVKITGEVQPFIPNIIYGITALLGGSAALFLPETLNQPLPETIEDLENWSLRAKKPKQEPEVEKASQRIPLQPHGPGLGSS
Protocol: (OAT)3: Estrone 3-sulfate transport was evaluated in HEK293 cells stably expressing human (OAT)3 (kit with ready to use 24 well plates were obtained from GenoMembrane). […] DM-4103 concentrations of 0.064, 0.32, 1.6, 8.0, 40, and 200 μM were tested.

[5] = biological target: T2, (OAT)3; experiment: Trial 2: (OAT)3 inhibition, furosemide in presence of DM-4103 vs. furosemide alone; type: in vivo; design: endogenous in cells; host or cells: healthy human subjects, in vivo; settings: furosemide 48 hours following 7 days of 300 mg tolvaptan q.d.
[6] = Trial 1: plasma rosuvastatin PK, tolvaptan and DM-4103 plasma concentrations, adverse events in healthy subjects
Protocol: (§1) Trial 1 was designed as an open-label, 3-period, sequential crossover. […] On days 7 to 13, 300 mg tolvaptan was administered q.d.
Doses on pharmacokinetic (PK) sampling days were administered in the fasted state with 240 ml of room temperature still water. No food was allowed from 10 h prior to dosing until lunch was given following the 4 h post-dose assessments; water was available ad libitum except for +/−2 h around dosing. On non-PK sampling days, tolvaptan was administered at least 30 min prior to breakfast. Safety was evaluated by laboratory values, vital signs, and 12-lead electrocardiogram (ECG) at screening, day 1, and discharge (no ECG), and adverse event reports.
A 90 mg dose of tolvaptan was chosen as it is the highest dose administered at any given time in the treatment of ADPKD.
The assay used to determine plasma tolvaptan concentrations also included DM-4103 as a standard. The precursor→production was m/z 479→252.

[7] = in vivo; cited from earlier work
[8] = Tolvaptan solubility; type: physicochemical; settings: pH independent
[9] = Phase III ADPKD trials: statin use with tolvaptan; type: in vivo, human; settings: subjects taking tolvaptan alone or tolvaptan plus statins
[10] = Phase II and III congestive heart failure trials: tolvaptan with furosemide; type: in vivo, human; settings: tolvaptan+furosemide compared with placebo+furosemide
[11] = biological target: T3, BCRP (Homo sapiens, UniProt Q9UNQ0)
T3 sequence (Q9UNQ0 1-655): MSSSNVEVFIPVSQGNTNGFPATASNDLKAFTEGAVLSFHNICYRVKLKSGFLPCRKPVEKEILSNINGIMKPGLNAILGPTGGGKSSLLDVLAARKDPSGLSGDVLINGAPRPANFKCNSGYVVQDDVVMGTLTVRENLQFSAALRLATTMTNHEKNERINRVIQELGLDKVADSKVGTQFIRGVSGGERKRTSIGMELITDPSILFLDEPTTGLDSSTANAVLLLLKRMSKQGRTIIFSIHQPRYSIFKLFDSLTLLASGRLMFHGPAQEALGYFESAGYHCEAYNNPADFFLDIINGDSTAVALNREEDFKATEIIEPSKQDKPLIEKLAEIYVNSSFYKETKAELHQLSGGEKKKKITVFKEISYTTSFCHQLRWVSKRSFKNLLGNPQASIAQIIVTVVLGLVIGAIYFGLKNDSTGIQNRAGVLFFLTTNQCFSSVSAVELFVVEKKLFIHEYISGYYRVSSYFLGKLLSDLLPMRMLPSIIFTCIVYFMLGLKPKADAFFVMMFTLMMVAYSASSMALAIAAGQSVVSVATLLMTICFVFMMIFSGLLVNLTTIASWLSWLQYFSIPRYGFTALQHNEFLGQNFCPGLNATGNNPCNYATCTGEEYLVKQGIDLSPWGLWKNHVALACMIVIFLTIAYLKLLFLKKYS
Protocol: BCRP: Prazosin transport was evaluated in MDCKII BCRP-expressing cells (obtained from SOLVO Biotechnology) precultured for six to eight days.

[12] = 300 mg tolvaptan for 5 days, healthy subjects; cited from earlier work
[13] = biological target: T4, sodium-dependent tauro-cholate co-transporting polypeptide (NTCP) (Homo sapiens, UniProt Q14973); settings: cited from earlier work
T4 sequence (Q14973 1-349): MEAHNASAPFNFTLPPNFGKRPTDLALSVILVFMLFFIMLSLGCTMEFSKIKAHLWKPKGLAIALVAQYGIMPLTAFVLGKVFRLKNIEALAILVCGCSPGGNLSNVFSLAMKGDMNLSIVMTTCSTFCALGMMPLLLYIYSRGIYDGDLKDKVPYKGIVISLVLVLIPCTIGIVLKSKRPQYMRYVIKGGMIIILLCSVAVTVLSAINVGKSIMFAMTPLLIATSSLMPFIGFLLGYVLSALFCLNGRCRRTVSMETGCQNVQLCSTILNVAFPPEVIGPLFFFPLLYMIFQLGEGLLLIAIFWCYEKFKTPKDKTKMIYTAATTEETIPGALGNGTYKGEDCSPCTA

[14] = system: sandwich-cultured human hepatocytes; settings: cited from earlier work
[15] = predicted; cited from earlier work
[16] = biological target: T3, BCRP; experiment: Trial 1: BCRP inhibition, rosuvastatin + tolvaptan vs. rosuvastatin alone; type: in vivo; design: endogenous in cells; host or cells: healthy human subjects, in vivo; settings: 90 mg tolvaptan with 5 mg rosuvastatin calcium
Protocol: as §1
An analysis of variance with a factor of period and random effect of subjects was performed on the natural-log transformed PK parameters using the MIXED procedure in SAS. From each analysis, the least square means, their difference, and the 90% CI for their difference were derived. Then, the anti-logs of the difference and the confidence limits provided the estimate and 90% CI for the ratio of the geometric means of the test treatment to the reference treatment. Only subjects with values in both treatments were used in the analysis.

Cc1ccccc1C(=O)Nc1ccc(C(=O)Nc2ccc(Cl)cc2C(=O)CCC(=O)O)c(C)c1 [DM-4103]
plasma protein binding (PPB) [1]: greater than 99.8% | DM-4103 binding in presence of six other highly plasma protein bound compounds ([1]; all samples, no interactions detected): greater than 99.8% | plasma concentrations ([2]; first 2 hours following a 90 mg tolvaptan dose): less than 100 ng/ml | elimination half-life ([2]; human, in vivo): ~180 h | time to steady-state concentrations after the start of tolvaptan dosing ([2]; human, in vivo): ~8 weeks | IC50 [3]: 255 nM | inhibitor of (OATP)1B1 in vitro [3]: inhibitor | IC50 ([4]; (OAT)3 overexpressing HEK293 cells, read-out: IC50 estimate, inhibition of estrone 3-sulfate transport): 425 nM | DM-4103 concentration at which the ratio is equal to 0.1 ([4]; Imax,u/IC50 for (OAT)3, fu,p 0.01): ~2034 ng/mL | inhibitor of (OAT)3 in vitro ([4]; in vitro): inhibitor | inhibition of (OAT)3 in healthy subjects [5]: No inhibition; also recorded: not an inhibitor

CCCN(CCC)S(=O)(=O)c1ccc(C(=O)O)cc1 [Probenecid]
inhibition at 30 µM ([4]; HEK293, read-out: inhibition of estrone 3-sulfate transport): 91.1%

CC(C)c1nc(N(C)S(C)(=O)=O)nc(-c2ccc(F)cc2)c1/C=C/[C@@H](O)C[C@@H](O)CC(=O)O [rosuvastatin]
Tmax ([6]; 5 mg ROS in presence of DM-4103, median): 4.00 h | Tmax ([6]; 5 mg rosuvastatin + 90 mg tolvaptan, median): 3.03 h | TEAE incidence: nausea ([6]; human, in vivo): 12.5% | AUCt ([6]; human, in vivo, 5 mg): 18.9 ng·h/mL | AUC∞ ([6]; human, in vivo, 5 mg): 20.3-36.0** ng*h/ml | Cmax ([6]; human, in vivo, 5 mg): 2.81 ng/mL | Tmax ([6]; human, in vivo, 5 mg): 3.50 h | t1/2, z ([6]; human, in vivo, 5 mg): 2.4-4.3** h | observed increases in rosuvastatin maximal peak plasma concentration (Cmax) [7]: up to 11 fold

Cc1ccccc1C(=O)Nc1ccc(C(=O)N2CCCC(O)c3cc(Cl)ccc32)c(C)c1 (stereo not shown) [tolvaptan, 7-chloro-5-hydroxy-1-[2-methyl-4-(2-methylbenzoylamino)benzoyl]-2,3,4,5-tetrahydro-1H-benzoazepine]
solubility [8]: about 0.01 g/250 ml | half-life ([2]; human, in vivo): ~3.5 h | accumulation ([2]; steady-state concentrations achieved on day 1): no accumulation | statin use or incidences of statin-related adverse events [9]: no differences | incidence of adverse events [10]: similar | IC50 [11]: 8320 nM | Igut/IC50 (printed as predicted Ki) ([11]; human): 96.4 | safety and tolerability [12]: safe and well-tolerated | NTCP IC50 value relative to Cmax [13]: higher than Cmax | inhibitor of NTCP [13]: inhibitor of NTCP | accumulation in sandwich-cultured human hepatocytes [14]: at least 10 fold | liver:blood ratio [15]: 38.76 | inhibition of BCRP in healthy subjects [16]: No clinically-relevant inhibition

From patent US20230158041A1, “METHODS AND COMPOSITIONS FOR TREATING AUTOSOMAL DOMINANT POLYCYSTIC KIDNEY DISEASE” (OTSUKA PHARMACEUTICAL CO.,LTD., priority 2021, published 2023)
